Results published in ChEMBL document CHEMBL1697731, “Cheminformatics analysis of assertions mined from literature that describe drug-induced liver injury in different species” (Chem Res Toxicol, 2010).
*1 amine or outer side, *2 acyl side, *3 side chain or, on linkers, in order; H or OH if unused. Where a SMILES comes first, the peptide text is derived from it. Bridges are numbered along the chain shown (N, C = ends). Roman numbers before positions name the chains, in order. [ ]: non-standard residue; d: D form. Actinocin(9to1) = Cc1c2oc3c(C)ccc(C(=O)[*:1])c3nc-2c(C(=O)[*:2])c(N)c1=O; NMeV = CN[C@H](C(=O)O)C(C)C; Sar = CNCC(=O)O

How the values were obtained:
[1] = tested on: Hepatotoxicity; test: Literature-mined compound from Fourches et al multi-species drug-induced liver injury (DILI) dataset, effect in humans; details: human
[2] = tested on: Hepatotoxicity; test: Literature-mined compound from Fourches et al multi-species drug-induced liver injury (DILI) dataset, effect in rodents; details: rodentia
[3] = tested on: Hepatotoxicity; test: Literature-mined compound from Fourches et al multi-species drug-induced liver injury (DILI) dataset, effect in non-rodents

SMILES | Hepatotoxicity [1] | Hepatotoxicity [2] | Hepatotoxicity [3] | Hepatotoxicity ([1]; Liver) | Hepatotoxicity ([2]; Liver) | Hepatotoxicity ([3]; Liver)
Nc1nc(Cl)nc2c1ncn2[C@@H]1O[C@H](CO)[C@@H](O)[C@@H]1F [CLOFARABINE] | drug-induced liver injury reported | no drug-induced liver injury reported | no drug-induced liver injury reported | – | – | –
CC(C)/N=c1\cc2n(-c3ccc(Cl)cc3)c3ccccc3nc-2cc1Nc1ccc(Cl)cc1 [CLOFAZIMINE] | drug-induced liver injury reported | no drug-induced liver injury reported | no drug-induced liver injury reported | – | – | –
CCOC(=O)C(C)(C)Oc1ccc(Cl)cc1 [CLOFIBRATE] | drug-induced liver injury reported | drug-induced liver injury reported | drug-induced liver injury reported | – | – | –
Cc1ncsc1CCCl [CLOMETHIAZOLE] | drug-induced liver injury reported | drug-induced liver injury reported | no drug-induced liver injury reported | – | – | –
Clc1cccc(Cl)c1N=C1NCCN1 [CLONIDINE] | – | – | – | drug-induced liver injury reported | drug-induced liver injury reported | no drug-induced liver injury reported
COC(=O)[C@H](c1ccccc1Cl)N1CCc2sccc2C1 [CLOPIDOGREL] | – | – | – | drug-induced liver injury reported | drug-induced liver injury reported | no drug-induced liver injury reported
CCc1cc2c(s1)N(C)C(=O)CN=C2c1ccccc1Cl [CLOTIAZEPAM] | drug-induced liver injury reported | no drug-induced liver injury reported | no drug-induced liver injury reported | – | – | –
Clc1ccccc1C(c1ccccc1)(c1ccccc1)n1ccnc1 [CLOTRIMAZOLE] | no drug-induced liver injury reported | drug-induced liver injury reported | no drug-induced liver injury reported | – | – | –
CN1CCN(C2=Nc3cc(Cl)ccc3Nc3ccccc32)CC1 [CLOZAPINE] | drug-induced liver injury reported | no drug-induced liver injury reported | no drug-induced liver injury reported | – | – | –
COC(=O)[C@H]1[C@@H](OC(=O)c2ccccc2)C[C@@H]2CC[C@H]1N2C [COCAINE] | drug-induced liver injury reported | drug-induced liver injury reported | no drug-induced liver injury reported | – | – | –
COc1ccc2c3c1O[C@H]1[C@@H](O)C=C[C@H]4[C@@H](C2)N(C)CC[C@@]341 [CODEINE] | – | – | – | drug-induced liver injury reported | drug-induced liver injury reported | no drug-induced liver injury reported
COc1cc2c(c(OC)c1OC)-c1ccc(OC)c(=O)cc1[C@@H](NC(C)=O)CC2 [COLCHICINE] | drug-induced liver injury reported | drug-induced liver injury reported | no drug-induced liver injury reported | – | – | –
Nc1ncnc2c1ncn2[C@@H]1O[C@H](CO)C[C@H]1O [CORDYCEPIN] | no drug-induced liver injury reported | drug-induced liver injury reported | no drug-induced liver injury reported | – | – | –
CC(=O)OCC(=O)[C@@]1(O)CC[C@H]2[C@@H]3CCC4=CC(=O)CC[C@]4(C)[C@H]3C(=O)C[C@@]21C [CORTISONE ACETATE] | no drug-induced liver injury reported | drug-induced liver injury reported | no drug-induced liver injury reported | – | – | –
CC1=C(CC(=O)NCc2ccccc2)c2cc(F)ccc2/C1=C\c1ccncc1.Cl [CP-461] | drug-induced liver injury reported | no drug-induced liver injury reported | no drug-induced liver injury reported | – | – | –
CN(CC(=O)O)C(=N)N [CREATINE] | no drug-induced liver injury reported | drug-induced liver injury reported | no drug-induced liver injury reported | – | – | –
COc1cc(/C=C/C(=O)CC(=O)/C=C/c2ccc(O)c(OC)c2)ccc1O [CURCUMIN] | drug-induced liver injury reported | drug-induced liver injury reported | no drug-induced liver injury reported | – | – | –
CC1CC(OC(=O)C(O)c2ccccc2)CC(C)(C)C1 (stereo not drawn) [CYCLANDELATE] | no drug-induced liver injury reported | drug-induced liver injury reported | no drug-induced liver injury reported | – | – | –

SMILES | Hepatotoxicity [1] | Hepatotoxicity [2] | Hepatotoxicity [3] | Hepatotoxicity ([1]; Liver) | Hepatotoxicity ([2]; Liver) | Hepatotoxicity ([3]; Liver)
CCC1(C2=CCCCC2)C(=O)NC(=O)NC1=O [CYCLOBARBITAL] | no drug-induced liver injury reported | drug-induced liver injury reported | no drug-induced liver injury reported | – | – | –
CCC(C(=O)O)C1(O)CCCCC1 (stereo not drawn) [CYCLOBUTYROL] | no drug-induced liver injury reported | drug-induced liver injury reported | no drug-induced liver injury reported | – | – | –
CC1=C2C[C@H]3[C@@H](CC=C4C[C@@H](O)CC[C@@]43C)[C@@H]2CC[C@]12O[C@@H]1C[C@H](C)CN[C@H]1[C@H]2C [CYCLOPAMINE] | drug-induced liver injury reported | no drug-induced liver injury reported | no drug-induced liver injury reported | – | – | –
O=P1(N(CCCl)CCCl)NCCCO1 (stereo not drawn) [CYCLOPHOSPHAMIDE ANHYDROUS] | – | – | – | drug-induced liver injury reported | drug-induced liver injury reported | no drug-induced liver injury reported
O=C(/C=C/c1ccc(O)c(O)c1)O[C@@H]1C[C@@](OC(=O)/C=C/c2ccc(O)c(O)c2)(C(=O)O)C[C@@H](O)[C@@H]1O [CYNARIN] | no drug-induced liver injury reported | drug-induced liver injury reported | no drug-induced liver injury reported | – | – | –
CN1CCC(=C2c3ccccc3C=Cc3ccccc32)CC1 [CYPROHEPTADINE] | drug-induced liver injury reported | drug-induced liver injury reported | no drug-induced liver injury reported | – | – | –
CC(=O)O[C@]1(C(C)=O)CC[C@H]2[C@@H]3C=C(Cl)C4=CC(=O)[C@@H]5C[C@@H]5[C@]4(C)[C@H]3CC[C@@]21C [CYPROTERONE ACETATE] | drug-induced liver injury reported | drug-induced liver injury reported | no drug-induced liver injury reported | – | – | –
Nc1ccn([C@@H]2O[C@H](CO)[C@@H](O)[C@@H]2O)c(=O)n1 [CYTARABINE] | – | – | – | drug-induced liver injury reported | drug-induced liver injury reported | no drug-induced liver injury reported
CN(C)/N=N/c1[nH]cnc1C(N)=O [DACARBAZINE] | drug-induced liver injury reported | no drug-induced liver injury reported | no drug-induced liver injury reported | – | – | –
Cc1c2oc3c(C)ccc(C(=O)N[C@@H]4C(=O)N[C@H](C(C)C)C(=O)N5CCC[C@H]5C(=O)N(C)CC(=O)N(C)[C@@H](C(C)C)C(=O)O[C@@H]4C)c3nc-2c(C(=O)N[C@@H]2C(=O)N[C@H](C(C)C)C(=O)N3CCC[C@H]3C(=O)N(C)CC(=O)N(C)[C@@H](C(C)C)C(=O)O[C@@H]2C)c(N)c1=O [DACTINOMYCIN] (I: T[dV]P[Sar][NMeV] / II: T[dV]P[Sar][NMeV]; ester I:1-I:C, II:1-II:C; linker I:N-II:N via Actinocin(9to1)) | drug-induced liver injury reported | drug-induced liver injury reported | drug-induced liver injury reported | – | – | –
C#C[C@]1(O)CC[C@H]2[C@@H]3CCC4=Cc5oncc5C[C@]4(C)[C@H]3CC[C@@]21C [DANAZOL] | drug-induced liver injury reported | no drug-induced liver injury reported | no drug-induced liver injury reported | – | – | –
O=C1c2cccc(O)c2C(=O)c2c(O)cccc21 [DANTHRON] | no drug-induced liver injury reported | drug-induced liver injury reported | no drug-induced liver injury reported | – | – | –
O=C1CN(/N=C/c2ccc(-c3ccc([N+](=O)[O-])cc3)o2)C(=O)[N-]1.[Na+] [DANTROLENE SODIUM] | no drug-induced liver injury reported | drug-induced liver injury reported | no drug-induced liver injury reported | – | – | –
Nc1ccc(S(=O)(=O)c2ccc(N)cc2)cc1 [DAPSONE] | – | – | – | drug-induced liver injury reported | no drug-induced liver injury reported | no drug-induced liver injury reported
COc1cccc2c1C(=O)c1c(O)c3c(c(O)c1C2=O)C[C@@](O)(C(C)=O)C[C@@H]3O[C@H]1C[C@H](N)[C@H](O)[C@H](C)O1 [DAUNORUBICIN] | drug-induced liver injury reported | drug-induced liver injury reported | no drug-induced liver injury reported | – | – | –
Nc1ncn([C@H]2C[C@H](O)[C@@H](CO)O2)c(=O)n1 [DECITABINE] | drug-induced liver injury reported | no drug-induced liver injury reported | no drug-induced liver injury reported | – | – | –
O=C(O)c1ccc(-n2nc(-c3ccccc3O)nc2-c2ccccc2O)cc1 [DEFERASIROX] | drug-induced liver injury reported | no drug-induced liver injury reported | no drug-induced liver injury reported | – | – | –
CC(=O)N(O)CCCCCNC(=O)CCC(=O)N(O)CCCCCNC(=O)CCC(=O)N(O)CCCCCN [DEFEROXAMINE] | drug-induced liver injury reported | drug-induced liver injury reported | drug-induced liver injury reported | – | – | –
